Source: patent publication US8592581B2, “Trisubstituted purine derivatives” (Cyclacel Limited, priority 2007, dated 2013)

Columns and labels:
LoVo = test: Alamar blue cytotoxicity assay LoVo; type: cell-based; conditions: Homo sapiens, 72 hours, read-out: cellular cytotoxicity IC50 LoVo
Procedure: In order to determine the cellular potency of the compounds, the cytotoxicity of each compound was determined against a range of cell lines. Standard cytotoxicity methods were performed as follows: cells were seeded in 96-well plates appropriately for their doubling time (2-5000 cells per well) in RPMI or DMEM media containing 10% FCS and incubated overnight at 37° C., 5% CO2. The media was removed and 100 μl fresh media containing increasing concentrations of appropriate compound was added and the cells incubated for 72 hours at 37° C., 5% CO2. A 10% stock of alamar blue (Roche, Lewes, United Kingdom) was prepared in medium and 100 μl added to the cells which were incubated for 2 hours. Absorbance was measured on the Wallac Victor 2 1420 multi-label counter at 544-595 nm.

Mcl-1 = Mcl-1 downregulation in H460 cells by Western blotting; type: cell-based
Procedure: The media was removed and the adherent cells washed with 5 ml PBS. […] Proteins were transferred to nitrocellulose membranes (Schleicher & Schuell, Dassel, Germany) using wet electrophoretic transfer. Membranes were stained with Ponceau S to confirm equal loading before blocking in 5% nonfat milk in PBS with 0.05% Tween 20 (PBSTM) for 2 hours. Membranes were incubated overnight at 4° C. with primary antibody (rabbit polyclonal antibody to Mcl-1, Santa Cruz), diluted 1:1000 in PBSTM. Membranes were washed 2×5 minute followed by 2×10 minute in PBS and 0.05% Tween 20 (PBST) and incubated for 1 hour in PBSTM containing horseradish peroxidase-conjugated secondary antibody. Membranes were washed as before and incubated with enhanced chemiluminescence solution (Amersham) and exposed to X-ray film (Amersham).
In a second experiment the effect of additional compounds on Mcl-1 levels was investigated.

Which IC50 (LoVo) does the source give for `CC[C@H](Nc1nc(NCc2cnc(C)cc2C)c2ncn(C(C)C)c2n1)[C@@H](C)O` [Compound [1]] here?
The IC50 was 700 nM.

What about the “downregulating the levels of Mcl-1 (in words)” value (Mcl-1; H460 cells, 0.5, 1.5, 4.5 and 13.5 μM, 5 hrs) of the same molecule?
The value was “most effective compound from this group”.

And the “concentration at which significant effects on Mcl-1 levels are observed” value (Mcl-1; H460 cells, 24 hr)?
Its value is 1.5 µM.
